Assay results: patent publication US20240246960A1 (adMare Therapeutics Society, priority 2021, published 2024)
Read-outs that look alike come from different tables or passages of the source.

Assays:
[1] = test system: pH2AX induction in HCT116 ATM−/− multicellular tumour spheroids; test: Prodrug radiation sensitization in multicellular tumour spheroids (pH2AX induction following radiation); format: cell-based
Experimental: Prodrug compounds were assayed to determine their potency in 3D multicellular spheroids in media maintained under 20% vs […]. Multicellular tumour spheroids were grown to approximately 0.5 mm in diameter and irradiated with 20 Gy in combination with inhibitor test compounds to determine their potency using HCT116 and FaDu cell lines. Experiments were carried out in 96 well plates containing 0.7 mls of MEM media containing 10% FBS and 10 mM glucose under […] at 37° C. Following dilution of compounds 1:1000 from DMSO stocks, compounds were serially diluted from 10 μM down to 3.5 nM and 5-10 spheroids added. 96 well plates were constantly stirred to avoid spheroids settling during the course of the experiment. Endpoints were pDNA-PK (ser 2056) or pH2AX (ser 139) status in spheroid cryosections taken 1 or 2 hours following radiation and fixed immediately in formalin. Using tumour cell lines deficient in ATM improved the assay signal to noise and gH2AX readout. Using this assay prodrug activity could be compared in the more oxygenated outer spheroid layers versus less oxygenated hypoxic central cell layers.

DNA-PK = molecular target: T1, DNA-PK (Homo sapiens, UniProt P78527); test: DNA-PK Assay for Biochemical Enzymatic Inhibition (ADP Glo Kinase assay); conditions: Table 2
T1 construct: purchased Invitrogen PR9107A
Summary of the method: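 Human DNA-PK (25 ng) preincubated 15 min with compounds (ten three-fold dilutions) in HEPES pH 7.5, MgCl2, KCl, calf thymus DNA buffer, then substrate 434.4 μM and ATP 64.4 μM (final) for 60 min at room temperature. ADP-Glo luminescence; percent inhibition fitted by four-parameter regression for IC50.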

FaDu cell line = test: Prodrug activation in hypoxic stirred tumour cell suspensions; format: in vitro ADME; conditions: 10 μM, 4 hours
Experimental: Prodrug compounds were assayed to determine their stability and rate of activation in stirred cell suspensions under 0.2 vs 5% oxygen. Compounds were diluted 1:1000 from DMSO stocks to 10 μM final concentration in tumour cell suspensions (1% by cell volume) in MEM media containing 10% FBS, 10 mM glucose & 3.7 g/L sodium bicarbonate. Cell lines assayed included A253, A549, Detroit562, FaDu, HCT116, HEP G2, HT29, SCC25, SCC9, SiHa & TC32. Compounds and cells were then incubated for 4 hours under constant mixing at 37° C. under 5% CO2 and either 0.2 or 5% O2. Following the incubation period cellular activation of the compounds was assayed via MeOH extraction and HPLC quantification.

[2] = Microsomal stability assay, mouse liver microsomes; conditions: Example 11; for microsomal CLint at 0.1 uM: male, CD-1, mouse, liver microsomes, pH 7.4, Microsomal Stability Mouse Clint
Experimental: Mouse liver microsomes were obtained from a pool of 250 or more male CD-1 mice. […] Final microsomal concentration was 0.1 mg/mL and test compound concentration was 0.1 uM with a maximum of 0.01% DMSO. The test compound was pre-incubated with pooled liver microsomes in phosphate buffer (pH 7.4) for 5 min in a 37° C. shaking water bath. The reaction was initiated by adding NADPH-generating system and incubated for 0, 15, 30, 45, and 60 min. The reaction was stopped by transferring the incubation mixture to acetonitrile/methanol. Samples were then mixed and centrifuged. Supernatants were used for HPLC-MS/MS analysis. The HPLC system consisted of a binary LC pump with autosampler, a C-18 column, and a gradient. Peak areas corresponding to the test compound were recorded. The compound remaining was calculated by comparing the peak area at each time point to time zero. The half-life was calculated from the slope of the initial linear range of the logarithmic curve of compound remaining (%) vs. time, assuming first order kinetics. In addition, the intrinsic clearance (Clint) was calculated from the half-life.

[3] = Microsomal stability assay, human liver microsomes; format: in vitro ADME; conditions: for Microsomal Stability (human) % rem. 60 min: Example 11; for microsomal CLint at 0.1 uM: both sexes, human, liver microsomes, pH 7.4, Example 11
Experimental: Samples were then mixed and centrifuged. Supernatants were used for HPLC-MS/MS analysis. […] Peak areas corresponding to the test compound were recorded.

[4] = molecular target: T2, DNA-PK phosphorylation at Serine 2056 (Homo sapiens, UniProt P78527); test: Cellular Assay for Inhibition of DNA-PK Phosphorylation at Serine 2056 (FaDu cells, neocarzinostatin, sandwich ELISA); format: cell-based; conditions: Table 2
T2 construct: host or cells: FaDu
Summary of the method: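 FaDu cells were pretreated with compound (0.3% DMSO) for 1 h, then exposed to neocarzinostatin at 1 μg/mL final for 2 h to induce DSBs. Protein-normalized lysates were assayed by MSD sandwich ELISA for total and pSer2056 DNA-PK. IC50 came from variable-slope fits of % inhibition relative to DMSO and NCS controls.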

[5] = Homo sapiens, HCT-116, 20 Gy, 5% O2, inner layers, read-out: Prodrug 5% O2 Inner layers EC50
[6] = Homo sapiens, HCT-116, 20 Gy, 5% O2, outer layers, read-out: Prodrug 5% O2 Outer layers EC50
[7] = Homo sapiens, HCT-116, 20 Gy, 20% O2, outer layers, read-out: Prodrug 20% O2 Outer layers EC50
[8] = 20 Gy, 5% O2, inner layers, read-out: Prodrug 5% O2 Inner layers EC50
[9] = 20 Gy, 5% O2, outer layers, read-out: Prodrug 5% O2 Outer layers EC50
[10] = 20 Gy, 20% O2, outer layers, read-out: Prodrug 20% O2 Outer layers EC50
[11] = value of the effector of the listed prodrug, 5% O2, inner layers, read-out: Effector 5% O2 Inner layers EC50

Row | SMILES | EC50 [1, 5] [nM] | EC50 [1, 6] [nM] | EC50 [1, 7] [nM] | IC50 (DNA-PK) [nM] | Fraction of prodrug converted to active form, Hypoxic 0.2% O2 (FaDu cell line) | Fraction of prodrug converted to active form, Oxic 5% O2 (FaDu cell line) | Microsomal Stability (mouse) % rem. 60 min [2] | microsomal CLint at 0.1 uM [2] [µL/min/mg] | Microsomal Stability (human) % rem. 60 min [3] | microsomal CLint at 0.1 uM [3] [µL/min/mg] | IC50 [4] [nM] | EC50 [1, 8] [nM] | EC50 [1, 9] [nM] | EC50 [1, 10] [nM] | EC50 [1, 11] [nM]
1 | Cn1c(CN(c2cnc3cc(N4CCOCC4)nc(OC4CCC(Nc5ncccn5)CC4)c3c2)S(C)(=O)=O)cnc1[N+](=O)[O-] (stereo not drawn) [LFA008, N-[(3-Methyl-2-nitro-imidazol-4-yl)methyl]-N-[7-morpholino-5-[4-(pyrimidin-2-ylamino)cyclohexoxy]-1,6-naphthyridin-3-yl]methanesulfonamide] | 10 to 500 | 500 to 1000 | 1000 to 10000 | 10 to 150 | B (B is 0.05 to 0.15) | D (D is 0 to 0.02) |  |  |  |  |  |  |  |  | 
2 | CC(c1cnc([N+](=O)[O-])n1C)N(c1cnc2cc(N3CCOCC3)nc(OC3CCC(Nc4ncc(C(F)(F)F)cn4)CC3)c2c1)S(C)(=O)=O (stereo not drawn) [LFA024, N-[1-(3-Methyl-2-nitro-imidazol-4-yl)ethyl]-N-[7-morpholino-5-[4-[[5-(trifluoromethyl)pyrimidin-2-yl]amino]cyclohexoxy]-1,6-naphthyridin-3-yl]methanesulfonamide] | 10 to 500 | 1000 to 10000 | 10000 to 100000 |  | B (B is 0.05 to 0.15) | D (D is 0 to 0.02) | E (% remaining = 0-25%) | > 116 | E (% remaining = 0-25%) | < 116 |  |  |  |  | 
3 | Cn1c(CN(c2cnc3cc(N4CCOCC4)nc(OC4CCC(Nc5ccn6nccc6n5)CC4)c3c2)S(C)(=O)=O)cnc1[N+](=O)[O-] (stereo not drawn) [LFA035, N-[(3-Methyl-2-nitro-imidazol-4-yl)methyl]-N-[7-morpholino-5-[4-(pyrazolo[1,5-a]pyrimidin-5-ylamino)cyclohexoxy]-1,6-naphthyridin-3-yl]methanesulfonamide] | 10 to 500 | 1000 to 10000 | 1000 to 10000 |  | B (B is 0.05 to 0.15) | D (D is 0 to 0.02) |  |  |  |  |  |  |  |  | 
4 | Cn1c(CN(c2cnc3cc(N4CCOCC4)nc(OC4CCC(n5ccnc5)CC4)c3c2)S(C)(=O)=O)cnc1[N+](=O)[O-] (stereo not drawn) [LFA018, N-[5-(4-Imidazol-1-ylcyclohexoxy)-7-morpholino-1,6-naphthyridin-3-yl]-N-[(3-methyl-2-nitro-imidazol-4-yl)methyl]methanesulfonamide] | 1000 to 10000 | 1000 to 10000 | 1000 to 10000 | 10 to 150 | B (B is 0.05 to 0.15) | D (D is 0 to 0.02) |  |  |  |  | 10000 to 30000 |  |  |  | 
5 | Cn1c(CN(c2cnc3cc(N4CCOCC4)nc(OC4CCC(Nc5ncc(C#N)cn5)CC4)c3c2)S(C)(=O)=O)cnc1[N+](=O)[O-] (stereo not drawn) [LFA026, N-[5-[4-[(5-Cyanopyrimidin-2-yl)amino]cyclohexoxy]-7-morpholino-1,6-naphthyridin-3-yl]-N-[(3-methyl-2-nitro-imidazol-4-yl)methyl]methanesulfonamide] | 10 to 500 | 1000 to 10000 | 1000 to 10000 |  | B (B is 0.05 to 0.15) | D (D is 0 to 0.02) |  |  | E (% remaining = 0-25%) | > 116 |  |  |  |  | 
6 | Cn1c(CN(c2cnc3cc(N4CCOCC4)nc(OC4CCC(Nc5ncc(C(F)(F)F)cn5)CC4)c3c2)S(C)(=O)=O)cnc1[N+](=O)[O-] (stereo not drawn) [LFA023, N-[(3-Methyl-2-nitro-imidazol-4-yl)methyl]-N-[7-morpholino-5-[4-[[5-(trifluoromethyl)pyrimidin-2-yl]amino]cyclohexoxy]-1,6-naphthyridin-3-yl]methanesulfonamide] | 500 to 1000 | 1000 to 10000 | 1000 to 10000 |  | B (B is 0.05 to 0.15) | D (D is 0 to 0.02) |  |  | F (% remaining = 25-50%) | < 116 |  |  |  |  | 
7 | Cn1c(Cn2cnc(-c3cnc4cc(N5CCOCC5)nc(OC5CCC(Nc6ncccn6)CC5)c4c3)n2)cnc1[N+](=O)[O-] (stereo not drawn) [LFA138] |  |  |  |  | D (D is 0 to 0.02) | D (D is 0 to 0.02) |  |  |  |  |  | 1000 to 10000 | 1000 to 10000 | 1000 to 10000 | 10 to 500
8 | CC(c1cnc([N+](=O)[O-])n1C)N(c1cnc2cc(N3CCOCC3)nc(OC3CCC(Nc4ncccn4)CC3)c2c1)S(C)(=O)=O (stereo not drawn) [LFA010, N-[1-(3-Methyl-2-nitro-imidazol-4-yl)ethyl]-N-[7-morpholino-5-[4-(pyrimidin-2-ylamino)cyclohexoxy]-1,6-naphthyridin-3-yl]methanesulfonamide] | 10 to 500 | 10 to 500 | 1000 to 10000 | 10 to 150 | A (A is 0.15 to 1) | C (C is 0.02 to 0.05) | E (% remaining = 0-25%) | > 116 | E (% remaining = 0-25%) | < 116 | 1000 to 10000 |  |  |  | 
9 | CC(c1cnc([N+](=O)[O-])n1C)N(c1cnc2cc(N3CCOCC3)nc(OC3CCC(Nc4ncc(C#N)cn4)CC3)c2c1)S(C)(=O)=O (stereo not drawn) [LFA027, N-[5-[4-[(5-Cyanopyrimidin-2-yl)amino]cyclohexoxy]-7-morpholino-1,6-naphthyridin-3-yl]-N-[1-(3-methyl-2-nitro-imidazol-4-yl)ethyl]methanesulfonamide] | 10 to 500 | 500 to 1000 | 1000 to 10000 |  | B (B is 0.05 to 0.15) | C (C is 0.02 to 0.05) | E (% remaining = 0-25%) | > 116 | E (% remaining = 0-25%) | > 116 |  |  |  |  | 
10 | Cn1c(Cn2ncnc2-c2cnc3cc(N4CCOCC4)nc(O[C@H]4CC[C@@H](Nc5ncccn5)CC4)c3c2)cnc1[N+](=O)[O-] [LFA139] |  |  |  |  | B (B is 0.05 to 0.15) | D (D is 0 to 0.02) |  |  |  |  |  | 500 to 1000 | 500 to 1000 | 1000 to 10000 | 10 to 500
11 | CC(c1cnc([N+](=O)[O-])n1C)N(c1cnc2cc(N3CCOCC3)nc(OC3CCC(Nc4ccn5nccc5n4)CC3)c2c1)S(C)(=O)=O (stereo not drawn) [LFA036, N-[1-(3-Methyl-2-nitro-imidazol-4-yl)ethyl]-N-[7-morpholino-5-[4-(pyrazolo[1,5-a]pyrimidin-5-ylamino)cyclohexoxy]-1,6-naphthyridin-3-yl]methanesulfonamide] | 10 to 500 | 500 to 1000 | 10000 to 100000 |  | A (A is 0.15 to 1) | D (D is 0 to 0.02) |  |  |  |  |  |  |  |  | 
